According to patent US8628961B2, “Small molecule antagonists of phosphatidylinositol-3,4,5-triphosphate (PIP3) and uses thereof” (Tufts University, priority 2010, dated 2014):

Legend:
[1] = Cell death in combination with inhibitors of mitochondrial respiration and ATP synthase; format: cell-based
From the text: Elstrom R L et al. (2004) Cancer Res 64:3892-9.

[2] = test system: human cancer cells; experiment: Cancer cell migration, transwell migration and wound closure models; format: cell-based; settings: model not specified
Description: Two models of cell migration were used, a transwell migration model and a wound closure model. Migration of cancer and endothelial cells was evaluated using 24-transwell Boyden chamber (Costar, Bedford, Mass.) with a polystyrene membrane (6.5 mm diameter, 10 μm thickness, and 8 μm pore size). Cells were suspended in serum-free media and seeded in the upper compartment of each well (2×10^4 cells/well) in the presence or absence of different compounds at the indicated concentrations. The lower compartment contained 600 μl of serum-free culture media supplemented with growth factors. After an 8-hr incubation at 37° C., cells were fixed and stained with 0.1% crystal violet. Non-migrating cells on the upper surface of the filter were removed, and the stained cells that migrated to the lower side were photographed using a phase-contrast microscope (Nikon, Japan) in five random fields. The cells were lysed with 10% acetic acid, and colorimetric determination was made at 595 nm using Wallac Victor 3 plate reader.
Cancer or endothelial cells were seeded into fibronectin-coated 96-well plates (2×10^4 cells/well). After reaching confluence, cell monolayers were scratched with a pipette tip to obtain a “wound”. The media and dislodged cells were aspirated and replaced by fresh serum-free media in the presence of growth factors, with or without compounds at different concentrations. After an 8-hr incubation at 37° C., cells were photographed using a phase-contrast microscope in five random fields. The width of wounded cell monolayers in images was measured and the inhibition rates of migration were calculated as inhibition rate=[1−(compound-treated group/control group)]×100%, and IC50 value was determined using Origin6 software (MicroCal, LLC, Northampton, Mass.).

[3] = target: T1, Akt PH domain (Homo sapiens (Human), UniProt P31749); experiment: PH domain translocation assay (GFP fusion, plasma membrane); format: cell-based; settings: PDGF stimulation
Description: Cells were transfected with the corresponding GFP-fusion vectors, serum starved overnight, and incubated with 100 μM PITs or PIT-1 is for 2 hr, followed by stimulation with 100 ng/ml PDGF or 250 ng/ml PMA for 5 min. The translocation was analyzed using fluorescent microscope and was quantitated by counting the number of cells with translocated PH domains in five random fields.
To begin characterizing cellular activity of PITs, a PH domain translocation assay was performed, measuring PIP3-induced association of GFP-fused PH domains with the plasma membrane. […] Varnai P et al. (1999) J Biol Chem 274:10983-9. Several PH-domain-containing proteins, which are known to bind PIP3 specifically and efficiently, were examined. […] Oikawa T et al. (2004) Nat Cell Biol 6:420-6.
Target sequence in this assay (P31749 5-108): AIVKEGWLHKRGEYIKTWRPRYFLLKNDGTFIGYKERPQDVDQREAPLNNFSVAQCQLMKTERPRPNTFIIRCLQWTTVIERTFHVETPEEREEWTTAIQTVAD

[4] = test system: U87MG cells; experiment: Combination with Akt kinase inhibitors in U87MG cells (western blot, ATP assay); format: cell-based, human
Description: U87MG cells were treated with 100 μM PIT-1, or 10 μM Akt inhibitor VIII (Calbiochem) or Akt inhibitor (Calbiochem), or 100 μM PIT-1 together with 10 μM Akt inhibitor VIII or Akt inhibitor, for 12 hr and then phosphorylation events were evaluated by western blot.

[5] = test system: SV40-transformed mouse adult lung fibroblasts; experiment: Viability of Akt1-expressing versus Akt1-3 triple knockout fibroblasts; format: cell-based
From the text: Shaughnessy J D (2008) Nature 454:172-3; Weinstein I G (2002) Science 297:63-4. Therefore, the possibility that PIT-1 may cause preferential cell death in the cells containing elevated PIP3 levels was examined. […] Li D M et al. (1998) Proc Natl Acad Sci USA 95:15406-11. […] Neshat M S et al. (2001) Proc Natl Acad Sci USA 98:10314-9.

[6] = target: GRP1 PH domain (Homo sapiens, UniProt O43739); experiment: FP PIP3/GRP1 PH domain binding assay; settings: 15 nM TMR-conjugated PIP3, 100 nM GRP1 PH domain, 30 min
[7] = test system: 4T1 breast tumor; experiment: Syngeneic 4T1 breast cancer growth in BALB/c mice; format: in vivo
Description: The effect of intravenous (i.v.) administration of both unencapsulated DM-PIT-1 in PBS and DM-PIT-1-M on the syngeneic 4T1 breast cancer growth in BALB/c mice was examined. 4T1 metastatic breast cancer cells were first cultured in vitro in DMEM medium containing 10% FBS and antibiotics. After re-suspension in PBS, the 4T1 cancer cells (8×10^4) were injected s.c. into axillary regions of BALB/c mice. The treatment with PIT-1 began on day 11 after inoculation of tumor cells, i.e., when tumors were palpable, but before tumors are precisely measurable (˜50 mm^3). Working solutions of all PIT-1-formulations were made in sterile 0.9% NaCl before injection into mice. […] If the tumor size reached approx. 1000 mm^3, the mice were euthanized using carbon dioxide (CO2) prior to cervical dislocation. Seven mice per group were used. The tumor volume (V) was measured every two days by microcaliper for 8 days. Tumor volume was calculated according to the formula (α×b^2)/2, where α is the longest and b is the shortest diameter of tumor, respectively. Tumor tissues were fixed in phosphate-buffered formalin, embedded in paraffin, cut in 4 μm thickness, and applied to slides. The slides were deparaffinized in xylenes using three changes for 5 min each, and hydrated gradually through graded alcohols: 100% ethanol twice for 10 min each, 95% ethanol twice for 10 min each, and then deionized water for 1 min with stirring. For antigen unmasking, slides were placed in a container, covered with 10 mM sodium citrate buffer, pH 6.0, and heated in a convection steamer for 1 hr. The slides were washed in deionized water three times for 2 min each, blocked with 5% normal goat blocking serum for 30 min, incubated with goat anti-CD31 primary antibody for 1 hr, and incubated with an Alexa Fluor 488-conjugated secondary antibody for 30 min. The slides were analyzed and photographed using a fluorescent microscope. TUNEL staining was performed using FragEL kit according to manufacturer's instructions (Calbiochem).

[8] = target: T1, Akt PH domain; experiment: Fluorescence polarization (FP) PIP3/Akt PH domain binding assay; settings: 15 nM TMR-conjugated PIP3, PITs 6.25-200 μM, 30 min
From the text: (§1) In order to identify compounds that disrupt the interaction between PIP3 and PH domains, a high-throughput fluorescence polarization (FP)-binding assay was developed using recombinant 1-123 amino acid N-terminal fragment of human Akt1 (also referred to herein simply as Akt), encompassing the PH domain (PH123 protein), and fluorescent […] PIP3 molecule. The amino acid sequence of human Akt1 is publicly available as, for example, GenBank Accession No. NP_001014432.1 (SEQ ID NO:1), and the corresponding DNA sequence is publicly available as, for example, GenBank Accession No. NM_001014432. Briefly, 5 μM recombinant GST fusion proteins containing 1-123 a.a. N-terminal fragment of human Akt1 (PH 123) or 100 nM 441-551 a.a. region of human PDK1 were incubated with 15 nM TMR-labeled PIP3, PIP2, or PIP5 in buffer containing 50 mM Tris-HCl (pH 7.5), 150 mM NaCl, and 5 mM b-ME for 15 min at room temperature in the dark. FP values were determined using Wallac Victor 3 plate reader. For the primary screen, 50,000 diverse small molecules from Harvard Institute of Chemistry and Cell Biology were screened (iccb.med.harvard.edu). Incubations were carried out for 1 hr. For secondary assays, PIT compounds were added at various concentrations (6.25, 12.5, 25, 50, 100, 150 and 200 μM), followed by a 30 min incubation. The inhibition rates were calculated as inhibition rate=[1−(compound-treated group/control group)]×100%, and IC50 value was determined using Origin6 software (MicroCal, LLC, Northampton, Mass.).
Target sequence in this assay (P31749 1-123): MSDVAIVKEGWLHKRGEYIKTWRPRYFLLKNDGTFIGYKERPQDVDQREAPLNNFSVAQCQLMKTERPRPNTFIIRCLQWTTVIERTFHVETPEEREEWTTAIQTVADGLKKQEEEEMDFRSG

[9] = target: PDK1 PH domain (Homo sapiens (Human), UniProt O15530); experiment: FP PIP3/PDK1 PH domain binding assay; settings: 15 nM TMR-conjugated PIP3, 100 nM PDK1 PH domain, 30 min
Sequence of PDK1 PH domain (O15530 441-551): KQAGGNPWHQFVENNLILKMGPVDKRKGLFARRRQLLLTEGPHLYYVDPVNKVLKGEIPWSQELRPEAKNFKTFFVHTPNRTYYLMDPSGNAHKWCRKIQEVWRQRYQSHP
From the text: as §1

[10] = test system: U87MG cells; experiment: cells; format: cell-based
Description: Based on the critical role of PIP3-dependent […] signaling in the regulation of cell survival, the effect of PIT-1 on the cancer cell viability was tested. Cancer cells were seeded into 96-well plates (white plates for ATP assay; black plates for fluorescent assay; clear plates for MTS assay) at the density of 5-10×10^3 cells per well in 100 μl of the appropriate media. Compounds were added at a series of concentrations and incubated for different times. For the ATP assay, a luminescence-based commercial kit (CellTiter-Glo, Promega, Madison, Wis.) was used. Thirty microliters of cell lysis/ATP detection reagent was added to each well, mixed for 10 min at room temperature, and the luminescence was measured using a Wallac Victor 3 plate reader (Perkin-Elmer, Wellesley, Mass.). For the MTS assay, a CellTiter 96 AQueous Non-Radioactive Cell Proliferation Assay Kit (Promega, Madison, Wis., USA) was used. Twenty microliters of the combined MTS/PMS solution was added into each well, incubated for 4 hr at 37° C., and the absorbance at 490 nm was measured using a Wallac Victor 3 plate reader. For the Sytox cell death assay, measuring loss of plasma membrane integrity, cells were incubated with 1 μM Sytox Green reagent (Molecular Probes, Eugene, Oreg.) for 30 min at 37° C. and the fluorescence intensity was measured using Wallac Victor 3 plate reader with excitation at 485 nm and emission at 545 nm. Next, 5 μl of 20% (v/v) Triton X-100 solution was added to each well and incubated for 1 hr at 37° C., and the signal was measured again. The ratio of values (percentage of dead cells in each well) before and after Triton X-100 treatment was calculated and normalized to the relevant controls not subjected to the cytotoxic stimuli. IC50 values were determined using Origin6 software (MicroCal, LLC, Northampton, Mass.).
To measure induction of cell death by PIT-1 derivatives, U87MG cells were incubated with PITs (1.56-300 μM) for 48 hr. Cell viability was determined using ATP assay.

[11] = Solubility (aqueous, cell media); format: physicochemical; settings: 300 μM unencapsulated
From the text: The size of the DM-PIT-1-loaded micelles was about 15 nm with a narrow size distribution.

IC50 [6] [µM] | IC50 [8] [µM] | IC50 [9] [µM] | IC50 ([10]; Homo sapiens, U-87 MG, U87MG cells, 48 hr, ATP assay, read-out: Cell Viability IC50) [µM] | precipitation in cell media [11] | SMILES | cell death with oligomycin, antimycin A, rotenone [1] | cancer cell migration [2] | plasma membrane translocation of Akt PH domain [3] | combination of Akt inhibitors VIII and X [4] | loss of viability in Akt1-expressing versus Akt1-3 triple knockout fibroblasts [5] | reduction of tumor volume compared to control ([7]; day 8, 0.4 mg/kg/day i.v.) [%] | tumor volume ([7]; day 8, 0.4 mg/kg/day i.v.) [mm^3] | tumor growth compared to control ([7]; i.v. daily 8 days, DM-PIT-1 0.4 mg/kg, DM-PIT-1-M 1 mg/kg, P<0.01) | tumor angiogenesis, CD31 loci ([7]; mouse, in vivo) | activity compared to PIT-1 ([10]; cell death in U87MG cells, cell migration, PI3K-PDK1-Akt signaling)
– | – | – | – | – | O=c1[nH]c2ccccc2n1C1CCN(Cc2ccc(-c3nc4cc5[nH]cnc5cc4nc3-c3ccccc3)cc2)CC1 [Akt inhibitor VIII] | synergized | lack thereof | Neither Akt inhibitor X nor allosteric inhibitor VIII blocked membrane translocation | no additive effect | comparable | – | – | – | – | –
35.5 ± 3.8 | 27.1 ± 3.2 | 80.5 ± 3.1 | 33.9 ± 2.2 | significant precipitation | Cc1cc(C)cc(C(=O)NC(=S)Nc2cc([N+](=O)[O-])ccc2O)c1 [DM-PIT-1] | – | – | – | – | – | 58.1 | 380±52.3 | significantly attenuated tumor growth | marked decrease in cancer angiogenesis | increased activity in these assays compared to PIT-1
